Experimental data as given in patent US7041706B2, “Method for treating crohn's disease” (priority 2002, dated 2006).

Test system: Crohn's Disease (CD)
Assay: Oral limonene regimen in two patients suffering from Crohn's Disease (case reports, Examples 2 and 3)
Conditions: for anal bleeding under prior medication regimen: Example 3 subject before limonene, combined regimen of six tablets ASACOL (mesalamine) daily and two 50 mg tablets IMURAN (azathioprine) daily
Protocol: As used herein, “treatment” shall mean temporary or permanent alleviation or elimination of CD symptoms and/or intestinal damage.
A preferred adult dose of limonene is about 400 to 1,000 milligrams, more preferably 1,000 mg, administered once daily, typically for a period of 10 to 30 days. Other dosing regimens, such as every other day and twice weekly regimens, may be desired, depending upon the patient. In fact, it will be appreciated by those of ordinary skill in the art that the amount of limonene, dosing schedule, and duration of treatment may vary depending upon the individual's age, weight, and severity of the CD.
Upon diagnosis, the patient underwent a partial small bowel surgical resection wherein about one foot of intestine and appendix were surgically removed.
To alleviate the symptoms of CD, the subject was taking the following prescriptions and over-the-counter medications: 1 Cortisone injection every six months; 1 tablet of 2.5 mg diphenoxylate/0.025 mg atropine every 8 hours as needed; twelve tablets (2.0 mg each) of IMODIUM (loperamide) every day as needed.
Prior to treatment with the limonene regimen, the subject discontinued taking their prescription and OTC medications for CD except for one cortisone injection in April 2001 and about 1 to 2 tablets of IMODIUM (lopcramide) per month. They began taking 1000 mg d-limonene (98%) on March 2001. […] The subject then began taking 400 mg of d-limonene once a week for two weeks, followed by 400-mg d-limonene twice a week for three weeks. The subject was then put on a regimen of 1000 mg d-limonene take once a week for three weeks, increasing to 1000 mg twice a week for three weeks. After that series, the subject began taking 1000 mg d-limonene every other day for three weeks. The subject continued to take 1000 mg d-limonene twice a week for maintenance.
A subject diagnosed with CD in November 1999 after undergoing a colonoscopy.
The subject began treatment with the inventive limonene method in January 2001, taking 1000 mg of d-limonene daily. […] For maintenance therapy, the patient continued to take three 1000 mg capsules of d-limonene per week.

Compound | adverse effect on first dosing (Example 2, subject with CD, 1000 mg d-limonene (98%) oral, regimen discontinued immediately) | anal bleeding (Example 2, subject with CD, during treatment, when taking 1000 mg d-limonene) | abdominal pain or cramping (Example 2 subject, during maintenance, 1000 mg d-limonene twice a week) | normal stools per day (Example 2 subject, during maintenance, 1000 mg d-limonene twice a week, about ten stools/day before treatment) [times a day] | anal bleeding (Example 3, subject with CD, about seven days after start of 1000 mg d-limonene daily) | stools per day (Example 3, subject with CD, about seven days after start of 1000 mg d-limonene daily, ten stools/day before) | anal bleeding under prior medication regimen
C=C(C)[C@H]1CC=C(C)CC1 [d-limonene] | severe acid reflux | stopped almost immediately | no abdominal pain or cramping | 1 to 2 | no anal bleeding | 1–2 stools per day | 
Nc1ccc(O)c(C(=O)O)c1 [ASACOL, mesalamine, reference compound] |  |  |  |  |  |  | bleeding ceased for about six to eight months, and then reoccurred
Cn1cnc([N+](=O)[O-])c1Sc1ncnc2nc[nH]c12 [IMURAN, azathioprine, reference compound] |  |  |  |  |  |  | bleeding ceased for about six to eight months, and then reoccurred
